The values below are quoted from earlier work in patent US8637323B2, “Fluorescent nitric oxide probes and associated methods” (Board of Regents, The University of Texas System, priority 2010, dated 2014).

The conditions of data set [1]: calculated with published photophysical parameters.

For the compound `CC(=O)Oc1ccc2c(c1)Oc1cc(OC(C)=O)ccc1C21OC(=O)c2cc(N)c(N)cc21` [DAF-2 DA], the “NO concentration giving a fluorescence signal comparable to 1 mM DHA” value is about 300 nM. Further, the fluorescence enhancement result in data set [1] is recorded as “ca. 200 fold”.
